Experiment [1] addresses T1, α4 GREFP β2 AChR (Homo sapiens, UniProt P17787+P43681, I229P/K186G/K222F/T220E/Y218R). Format: binding.
Experiment [2] addresses T2, α4 GREFP β4 AChR (Homo sapiens, UniProt P30926+P43681, I229P/K186G/K222F/T220E/Y218R).
Experiment [3] concerns the target T3, α2 GFEP β4 AChR (Homo sapiens, UniProt P30926+Q15822, D246E/I251P/K208G/K244F).
The target of experiment [4] is T3, α2 GFEP β4 AChR. The experiment in a line: cell-based.
The target of experiment [5] is T4, α3 GFEP β4 AChR (Homo sapiens, UniProt P30926+P32297, I227P/K184G/K220F/N222E).
In experiment [6] the target is T1, α4 GREFP β2 AChR. The experiment in a line: Time course of ^125I-α-BTX dissociation. Format: binding.
Experiment [7] has as its target α2 GFEP β2 AChR (Homo sapiens, UniProt P17787+Q15822, D246E/I251P/K208G/K244F). Format: binding.
The target in experiment [8] is T3, α2 GFEP β4 AChR. Kind of experiment: Time course of ^125I-α-BTX dissociation. The class given is binding.
Experiment [9] addresses T2, α4 GREFP β4 AChR. Kind of experiment: Time course of ^125I-α-BTX dissociation. The class given is binding.
Experiment [10] has as its target muscle AChR (α1, β, ε, δ) (Homo sapiens, UniProt P02708+Q04844+Q07001). Format: binding.
For experiment [11], the target named is T4, α3 GFEP β4 AChR. Kind of experiment: Time course of ^125I-α-BTX dissociation. Format: binding.
The target of experiment [12] is α7 AChR (Homo sapiens, UniProt P36544). The class given is binding.
In experiment [13] the target is wild type α4β2 AChR (Homo sapiens, UniProt P17787+P43681). The class given is binding.

“And” between values parts separate entries of the source, which are not always exact repeats. Equal entries are not always repeated. Where two headings read alike, the source gives them in different places.

T1 sequence (P43681 29-627 K186G/Y218R/T220E/K222F/I229P): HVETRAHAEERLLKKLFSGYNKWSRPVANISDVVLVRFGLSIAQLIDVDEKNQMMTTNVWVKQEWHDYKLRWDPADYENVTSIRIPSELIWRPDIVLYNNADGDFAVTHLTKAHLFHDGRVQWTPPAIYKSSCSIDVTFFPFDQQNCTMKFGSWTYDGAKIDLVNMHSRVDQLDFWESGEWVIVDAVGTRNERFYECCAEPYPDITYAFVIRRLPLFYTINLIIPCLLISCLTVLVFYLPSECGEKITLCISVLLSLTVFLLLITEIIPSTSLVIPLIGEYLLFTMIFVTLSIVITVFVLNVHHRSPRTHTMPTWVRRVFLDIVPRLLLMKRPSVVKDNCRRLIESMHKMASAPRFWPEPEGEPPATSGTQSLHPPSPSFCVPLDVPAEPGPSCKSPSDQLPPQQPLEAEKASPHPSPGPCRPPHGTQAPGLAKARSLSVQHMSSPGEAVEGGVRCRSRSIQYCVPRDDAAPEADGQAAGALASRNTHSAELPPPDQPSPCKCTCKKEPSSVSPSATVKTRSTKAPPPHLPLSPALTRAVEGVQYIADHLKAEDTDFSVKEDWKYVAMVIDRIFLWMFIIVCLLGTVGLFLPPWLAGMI
T1 sequence (P17787 26-502, stated change not applied): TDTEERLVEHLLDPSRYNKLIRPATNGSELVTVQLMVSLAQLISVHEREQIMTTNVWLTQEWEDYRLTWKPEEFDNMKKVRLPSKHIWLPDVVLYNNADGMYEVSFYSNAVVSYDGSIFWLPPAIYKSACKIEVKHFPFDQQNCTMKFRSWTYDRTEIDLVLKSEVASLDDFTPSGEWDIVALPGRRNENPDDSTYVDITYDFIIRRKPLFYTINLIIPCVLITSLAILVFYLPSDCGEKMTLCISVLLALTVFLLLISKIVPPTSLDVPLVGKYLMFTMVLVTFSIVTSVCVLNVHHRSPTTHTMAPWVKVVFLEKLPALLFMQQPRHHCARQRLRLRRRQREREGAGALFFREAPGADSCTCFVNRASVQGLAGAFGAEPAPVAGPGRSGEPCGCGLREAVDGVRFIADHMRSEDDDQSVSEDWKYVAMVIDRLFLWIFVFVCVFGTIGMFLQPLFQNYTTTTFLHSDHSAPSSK
T4 sequence (P32297 32-505 K184G/K220F/N222E/I227P): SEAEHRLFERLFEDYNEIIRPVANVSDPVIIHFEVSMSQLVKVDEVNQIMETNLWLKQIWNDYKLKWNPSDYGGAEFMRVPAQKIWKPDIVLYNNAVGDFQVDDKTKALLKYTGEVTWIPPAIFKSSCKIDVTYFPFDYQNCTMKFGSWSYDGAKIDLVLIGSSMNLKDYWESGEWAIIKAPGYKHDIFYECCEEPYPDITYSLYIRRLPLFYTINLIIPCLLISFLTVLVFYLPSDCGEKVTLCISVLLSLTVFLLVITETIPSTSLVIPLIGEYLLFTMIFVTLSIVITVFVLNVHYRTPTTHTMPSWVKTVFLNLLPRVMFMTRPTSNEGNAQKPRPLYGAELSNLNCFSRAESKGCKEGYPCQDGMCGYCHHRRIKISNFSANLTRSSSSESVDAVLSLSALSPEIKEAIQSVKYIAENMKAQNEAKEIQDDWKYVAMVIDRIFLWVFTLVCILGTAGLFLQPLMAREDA
T4 sequence (P30926 22-498, stated change not applied): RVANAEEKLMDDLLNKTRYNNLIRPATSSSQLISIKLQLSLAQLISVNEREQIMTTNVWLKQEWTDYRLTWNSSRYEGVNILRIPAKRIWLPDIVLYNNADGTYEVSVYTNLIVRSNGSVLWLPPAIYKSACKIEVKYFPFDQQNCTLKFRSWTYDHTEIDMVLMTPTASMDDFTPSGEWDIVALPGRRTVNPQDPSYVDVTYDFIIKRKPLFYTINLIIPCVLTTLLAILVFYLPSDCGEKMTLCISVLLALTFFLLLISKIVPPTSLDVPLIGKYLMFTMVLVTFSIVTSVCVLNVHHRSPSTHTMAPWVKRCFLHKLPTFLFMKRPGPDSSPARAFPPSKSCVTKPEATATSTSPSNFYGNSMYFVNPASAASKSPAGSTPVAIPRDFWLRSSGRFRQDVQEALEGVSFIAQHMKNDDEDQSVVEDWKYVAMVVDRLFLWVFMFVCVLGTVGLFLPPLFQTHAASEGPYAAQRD
T3 sequence (P30926 22-498, stated change not applied): as above
T3 sequence (Q15822 27-529 K208G/K244F/D246E/I251P): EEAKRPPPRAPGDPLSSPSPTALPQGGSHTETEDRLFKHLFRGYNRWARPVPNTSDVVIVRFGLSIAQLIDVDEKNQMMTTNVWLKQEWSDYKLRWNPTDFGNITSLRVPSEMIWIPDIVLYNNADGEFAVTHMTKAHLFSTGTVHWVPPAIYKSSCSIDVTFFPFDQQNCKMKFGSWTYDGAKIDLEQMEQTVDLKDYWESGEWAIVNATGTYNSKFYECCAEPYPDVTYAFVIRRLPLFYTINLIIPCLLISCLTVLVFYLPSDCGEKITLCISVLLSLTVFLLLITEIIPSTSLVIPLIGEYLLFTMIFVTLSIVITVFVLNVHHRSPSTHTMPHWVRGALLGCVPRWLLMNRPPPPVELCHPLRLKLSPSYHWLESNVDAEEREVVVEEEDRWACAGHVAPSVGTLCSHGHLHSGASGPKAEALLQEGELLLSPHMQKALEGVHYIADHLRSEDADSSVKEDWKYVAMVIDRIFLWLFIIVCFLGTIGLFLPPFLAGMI
T2 sequence (P30926 22-498): as the sequence (P30926 22-498, stated change not applied) above
T2 sequence (P43681 29-627 K186G/Y218R/T220E/K222F/I229P): as the sequence (P43681 29-627 K186G/Y218R/T220E/K222F/I229P) above
Sequence of muscle AChR (α1, β, ε, δ) (P02708 21-457 limits assumed): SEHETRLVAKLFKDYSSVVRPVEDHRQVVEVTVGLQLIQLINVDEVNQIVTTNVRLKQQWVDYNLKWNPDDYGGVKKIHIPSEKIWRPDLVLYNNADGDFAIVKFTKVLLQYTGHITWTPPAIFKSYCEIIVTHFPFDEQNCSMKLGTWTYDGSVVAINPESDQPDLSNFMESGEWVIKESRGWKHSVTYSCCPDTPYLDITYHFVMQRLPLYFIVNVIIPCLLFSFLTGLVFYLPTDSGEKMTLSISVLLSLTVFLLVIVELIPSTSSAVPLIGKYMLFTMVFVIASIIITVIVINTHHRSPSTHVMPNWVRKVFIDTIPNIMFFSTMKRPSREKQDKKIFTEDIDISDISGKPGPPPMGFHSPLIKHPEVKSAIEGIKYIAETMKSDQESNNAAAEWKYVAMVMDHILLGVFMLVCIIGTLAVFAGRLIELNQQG
Sequence of muscle AChR (α1, β, ε, δ) (Q04844 21-493 limits assumed): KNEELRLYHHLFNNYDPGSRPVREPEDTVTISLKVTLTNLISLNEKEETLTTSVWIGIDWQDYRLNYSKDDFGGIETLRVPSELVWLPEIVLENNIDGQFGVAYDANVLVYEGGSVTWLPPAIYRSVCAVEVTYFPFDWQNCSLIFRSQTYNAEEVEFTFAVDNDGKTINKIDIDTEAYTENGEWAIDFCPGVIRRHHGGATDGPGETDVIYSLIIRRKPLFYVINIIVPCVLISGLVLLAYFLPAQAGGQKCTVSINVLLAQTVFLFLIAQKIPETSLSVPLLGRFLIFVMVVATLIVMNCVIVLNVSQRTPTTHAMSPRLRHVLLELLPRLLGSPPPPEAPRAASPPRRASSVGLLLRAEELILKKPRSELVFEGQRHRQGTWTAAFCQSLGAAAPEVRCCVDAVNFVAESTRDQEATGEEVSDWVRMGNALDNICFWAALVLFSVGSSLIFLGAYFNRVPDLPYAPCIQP
Sequence of muscle AChR (α1, β, ε, δ) (Q07001 22-517 limits assumed): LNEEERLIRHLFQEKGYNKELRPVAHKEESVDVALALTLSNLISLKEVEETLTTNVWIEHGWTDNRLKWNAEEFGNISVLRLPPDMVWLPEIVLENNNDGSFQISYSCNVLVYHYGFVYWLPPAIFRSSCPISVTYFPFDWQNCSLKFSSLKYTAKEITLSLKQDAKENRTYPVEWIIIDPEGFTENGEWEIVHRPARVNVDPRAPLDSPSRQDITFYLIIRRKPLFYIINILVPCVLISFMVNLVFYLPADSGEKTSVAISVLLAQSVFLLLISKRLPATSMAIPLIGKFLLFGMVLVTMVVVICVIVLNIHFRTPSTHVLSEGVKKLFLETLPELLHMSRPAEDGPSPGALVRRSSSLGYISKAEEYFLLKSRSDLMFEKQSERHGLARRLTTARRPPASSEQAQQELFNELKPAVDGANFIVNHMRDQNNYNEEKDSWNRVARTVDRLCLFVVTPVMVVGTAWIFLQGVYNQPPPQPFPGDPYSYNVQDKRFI
Sequence of α7 AChR (P36544 23-502 limits assumed): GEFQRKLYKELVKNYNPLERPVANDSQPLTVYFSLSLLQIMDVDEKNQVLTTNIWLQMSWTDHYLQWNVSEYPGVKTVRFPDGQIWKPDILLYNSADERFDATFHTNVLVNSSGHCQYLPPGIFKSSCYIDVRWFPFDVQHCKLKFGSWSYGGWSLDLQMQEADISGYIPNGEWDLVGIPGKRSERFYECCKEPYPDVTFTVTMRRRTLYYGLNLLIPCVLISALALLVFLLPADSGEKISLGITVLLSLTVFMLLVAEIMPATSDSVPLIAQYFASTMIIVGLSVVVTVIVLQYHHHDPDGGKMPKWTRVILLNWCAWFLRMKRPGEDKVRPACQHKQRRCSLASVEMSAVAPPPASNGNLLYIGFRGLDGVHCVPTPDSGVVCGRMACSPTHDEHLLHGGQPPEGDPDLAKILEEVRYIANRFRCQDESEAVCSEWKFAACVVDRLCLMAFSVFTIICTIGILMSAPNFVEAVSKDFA
Sequence of α2 GFEP β2 AChR (P17787 26-502 limits assumed, stated change not applied): as the sequence (P17787 26-502, stated change not applied) above
Sequence of α2 GFEP β2 AChR (Q15822 27-529 K208G/K244F/D246E/I251P limits assumed, stated change not applied): as the sequence (Q15822 27-529 K208G/K244F/D246E/I251P) above

On to `Clc1ccc(C2CC3CCC2N3)cn1` (racemic) [Epibatidine, (±) epibatidine], for which, in experiment [1] (α4 GREFP + β2, ± S.E.), the “nH (Hill coefficient)” value was found to be 1.3 ± 0.1.

For the compound `CC(=O)OCC[N+](C)(C)C` [ACh, Acetylcholine], the “nH (Hill coefficient)” value in [1] is recorded as 0.81 ± 0.07.

Turning to `CN1CCC[C@H]1c1cccnc1` [Nicotine, (−)nicotine], the “nH (Hill coefficient)” value in experiment [2] was found to be 0.80 ± 0.1; in [3], 0.96 ± 0.1; in experiment [5] it was 0.75 ± 0.1; in experiment [1], 1.4 ± 0.1. Also, binding in [4] was put at a Kd of 0.21 µM.

Consider α-bungarotoxin [α-BTX], for which the Half-life is 12.6 h in experiment [6]; 6.0 h in experiment [7]; 9.6 h in [8]; 19 h in experiment [9]; 5.4 h in experiment [10]; 77 h in [11]. Besides, the Half-life in experiment [12] is on record as 133 h. Besides, the “dissociation constant from ratio of dissociation to association rate constants” value in experiment [6] was determined as 0.3 nM. The kdissoc was 1.5 × 10^−5 s^−1 and 1.5 ± 0.2 × 10^−5 s^−1 in experiment [6]; 3.2 ± 0.3 × 10^−5 s^−1 in experiment [7]; 2.0 ± 0.3 × 10^−5 s^−1 in [8]; 1.0 ± 0.1 × 10^−5 s^−1 in experiment [9]; 3.5 ± 0.4 × 10^−5 s^−1 in experiment [10]; 2.5 ± 0.9 × 10^−6 s^−1 in experiment [11]. For the same compound, in [12], the kdissoc is recorded as 1.5 ± 0.3 × 10^−6 s^−1. Moreover, the “affinity for the toxin (ratio of total to nonspecific binding close to one)” value in experiment [13] is “negligible affinity”.
